Columns and labels:
CD11b/CD18 [1] = assay: Cell adhesion assay, primary rat macrophages on immobilized fibrinogen; assay type: cell-based; conditions: vs non-activating Ca2+ and Mg2+
Protocol: (§1) K562 cells stably transfected with plasmid encoding wild-type integrin CD11b/CD18 (K562 WT cells) have been described previously and were maintained in Iscove's Modified Dulbecco's Medium (IMDM) supplemented with 10% FBS and G418 (0.5 mg/ml). The murine macrophage cell line (RAW 264.7 cells) was obtained from ATCC and the cells were maintained in DMEM supplemented with 10% heat-inactivated FBS according to the manufacturer's instructions. The primary rat peritoneal macrophages were isolated from the wild type Fisher 344 rats that had been previously injected with 5 mL of Brewer's thioglycolate broth (Sigma-Aldrich). Macrophage purity was directly analyzed by single channel flow cytometry using rat macrophage specific monoclonal antibodies ED1 (AbD Serotec, Raleigh, N.C.), WT.5 (BD Biosciences) and His36 (BD Biosciences). Purity was typically >85%. Macrophages were used in assays immediately upon isolation.
(§2) Cell adhesion assays using K562 WT, murine RAW 264.7 cells and the primary rat macrophages were performed as previously described and used immobilized fibrinogen as the ligand of CD11b/CD18 [49]. […] The remaining adherent cells were fixed using 4% formaldehyde and quantified by imaging microscopy as previously described (22, 63). […]

[2] = test system: RAW 264.7 macrophage cells; assay: Wound healing assay (macrophage migration); assay type: cell-based, murine; conditions: LA1 15 μM, M18/2 20 μg/mL, 48 hours
Protocol: Murine RAW 264.7 macrophage cells were grown in DMEM 10% FBS medium in T75 flasks to 70% confluence. The cells were detached by trypsin treatment for 10 minutes at 37° C. and evenly reseeded in 24 well plates and allowed to attain >70% confluency. A scratch was introduced horizontally across the well using 200 µL tip applying even force throughout the etching and holding the tip at approximately an 80 degree angle. The wells were subsequently washed and fresh medium containing various treatment groups was introduced. The wound was imaged using 10× objective. The cells were allowed to grow for 48 hours and the wound was reimaged at the same field after 48 hours. The average extent of wound closure was evaluated by measuring the width of the wound. The area healed was analyzed using ImageJ software and is expressed as percentage healing after 48 hours.
For FIG. 4B, RAW 264.7 cells were plated in 24-well tissue culture plates (2×10^6 cells/well) and allowed to adhere in complete media for 12 hours. […] Images of the cells in culture were obtained immediately prior to (0 hours) and after the completion of the experiment (48 hours) using an inverted phase contrast microscope attached to a video camera.
Representative data shown here are from a triplicate well experiment from one of at least two to three independent experiments. **p<0.001, ***p<0.0001.

Cl66 cells = assay: Orthotopic Cl66 mammary adenocarcinoma tumor growth, with or without Taxol; assay type: in vivo; conditions: BALB/c mice
Protocol: The syngeneic murine mammary adenocarcinoma cell line Cl66 (moderately metastatic and is related to the highly metastatic 4T1 cell line) was orthotopically introduced in Balb/c animals, by injecting ˜5×10^5 Cl66 cells under the left mammary fat pad of WT BALB/c mice (approx. 8-10 weeks old). The tumor size was measured using calipers every other day until the end of the experiment (approx. 5 weeks). 7-days post implantation, the tumors in all animals became palpable, with an average size of ˜100 mm3. At that time, animals in each group were treated as described. LA1 was administered daily for the first two weeks and then every other day until the end of the experiment. Animals in Group 1 received Saline injections, as control. […] It can also enhance the efficacy of traditional chemotherapy in various cancers, including breast cancer, to produce a synergistic response to the treatment. It can also reduce the incidence and the size of metastases.

Human macrophages = assay: mRNA levels of pro-inflammatory factors in LPS-treated human macrophages; assay type: cell-based; conditions: co-treated with LPS
Protocol: It was shown that β2 integrin agonist leukdherin LA1 modulates the expression levels of various pro-inflammatory factors in cells. Human macrophages were treated with LPS in the absence or presence of LA1 in vitro and determined the levels of mRNA in the cells at various time points using Nanostring inflammation array (184 genes) and exiqon microRNA panels.

[3] = LA1 concentration in mouse blood after PO and IP dosing (LC-MS); assay type: in vivo; conditions: 10 mg/kg, mice
T-cell proliferation = assay: Mixed lymphocyte reaction (MLR); assay type: cell-based
CD11b/CD18 [4] = target: CD11b/CD18 (Homo sapiens, UniProt P11215); assay: Cell adhesion assay, K562 WT cells on immobilized fibrinogen; assay type: cell-based; set-up: K562 cells stably transfected with plasmid encoding wild-type integrin CD11b/CD18; expressed in transfected cells; conditions: vs basal Ca2+ plus Mg2+ (1 mM each); leukadherins 15 μM, mAbs 20 μg/mL, Mn2+ 1 mM
Protocol: as §1, §2

## O=C(O)c1ccc(-c2ccc(/C=C3\SC(=S)N(Cc4ccccc4)C3=O)o2)cc1 [LA1]
CD11b/CD18 [1]
  adhesion of primary rat macrophages to immobilized fibrinogen: significantly enhanced the level of macrophage adhesion
[2]
  migration of LPS- or PMA-stimulated macrophages: significantly, and to a similar extent, reduced the migration
[2]; vs DMSO
  migration of macrophages into the wound area, agonist alone: no significant increase in the migration of macrophages
Cl66 cells
  rate of tumor growth, co-treatment with Taxol: highest reduction in the rate of tumor growth
Cl66 cells; vs vehicle
  rate of tumor growth, single agent: significant reduction in the rate of tumor growth
Human macrophages
  mRNA levels of pro-inflammatory factors upregulated by LPS: significantly reduced
[3]
  bioavailability: bioavailable
  concentration of LA1 in plasma: high concentrations
  levels in blood: micromolar levels
  mean residence time: at least a few hours
T-cell proliferation
  T-cell proliferation: dose-dependently reduces T-cell proliferation
CD11b/CD18 [4]
  adhesion of K562 WT cells to immobilized fibrinogen: significantly increased

From patent US10239871B2, “Compounds and methods for regulating integrins” (ADHAERE PHARMACEUTICALS, INC., priority 2012, dated 2019)
